Experimental data: EP4121415B1, “INHIBITORS OF CYTOKININ OXIDASE DERIVED FROM 1-[2-(HYDROXYALKYL)PHENYL]-3-YLUREA, USE THEREOF AND PREPARATIONS CONTAINING THESE DERIVATIVES” (Univerzita Palackého v Olomouci, priority 2020, dated 2021)
Like-named read-outs stand apart in the source and are kept apart here.

Target: T1, maize enzyme cytokinin oxidase/dehydrogenase 1 (ZmCKX1) (Zea mays, UniProt Q9T0N8)
T1 construct: made in house; host or cells: Yarrowia lipolytica
Assay: ZmCKX1 inhibition, PMS/MTT assay
Type: biochemical
Description: The IC50 (concentration of a substance that causes 50% inhibition of the enzyme activity) was measured by PMS/MTT assay [phenazine methosulphate/3-(4,5-dimethylthiazol-2-yl)-2,5-diphenyltetrazolium bromide]. The assay was performed in 96-well microtiter plates. Each well contained a reaction mixture with a final concentration of: 0.1 M KH2PO4, pH 7.4, 1 mM MTT, 0.2 mM PMS, tested substance in a concentration range of 0.1 nM - 1 µM and 10 µM N^6-isopentenyladenine (iP) as a substrate. To this reaction mixture 100 µL of medium containing the active enzyme ZmCKX1 was added. The enzyme was produced by the yeast Yarrowia lipolytica and isolated according to the protocol (Kopečný D. et al., 2005, […] 87:1011-1022). The plates were incubated for 30 min at 37 °C and the enzymatic reaction was stopped by the addition of 25 µL of 35% acetic acid. Then, the absorbance at 578 nm was measured on a spectrophotometer, and the absorbance of the sample without the substrate was substracted as a reference value. The IC50 value was determined from the concentration-dependent curves in GraphPad Prism software. The values shown in Table 1 are the average of at least two measurements each performed in three repetitions. […] This also applies to 3,5-DCl-Ph-U derivatives.

[1] = 10 µM N6-isopentenyladenine (iP) as substrate, pH 7.4, 30 min at 37 °C, average of at least two measurements, read-out: IC50 (µM) ZmCKX1

T1 sequence (Q9T0N8 19-534): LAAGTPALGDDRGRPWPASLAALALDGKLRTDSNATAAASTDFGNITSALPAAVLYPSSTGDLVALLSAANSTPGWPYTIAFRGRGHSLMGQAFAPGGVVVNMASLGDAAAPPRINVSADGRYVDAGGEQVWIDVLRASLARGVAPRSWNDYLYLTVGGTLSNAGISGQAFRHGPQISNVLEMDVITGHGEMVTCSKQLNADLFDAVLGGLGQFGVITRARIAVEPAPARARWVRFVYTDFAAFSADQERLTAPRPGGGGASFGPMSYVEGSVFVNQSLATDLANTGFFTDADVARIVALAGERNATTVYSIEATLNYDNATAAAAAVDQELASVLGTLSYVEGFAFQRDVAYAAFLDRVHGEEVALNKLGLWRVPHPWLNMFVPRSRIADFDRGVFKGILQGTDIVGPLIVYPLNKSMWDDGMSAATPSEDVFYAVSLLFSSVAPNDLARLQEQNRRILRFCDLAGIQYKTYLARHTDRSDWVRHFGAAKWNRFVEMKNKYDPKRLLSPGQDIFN

IC50 [1] | SMILES | IC50
2.5 µM | O=C(Nc1ccnc(F)c1)Nc1ccccc1CO [Compound 1, 1-(2-fluoropyridin-4-yl)-3-(2-hydroxymethylphenyl)urea] | 
0.82 µM | O=C(Nc1cc(F)nc(F)c1)Nc1ccccc1CO [Compound 3, 1-(2,6-difluoropyridin-4-yl)-3-(2-hydroxymethylphenyl)urea] | 
1.1 µM | COc1cc(NC(=O)Nc2ccccc2CO)ccn1 [Compound 7, 1-(2-methoxypyridin-4-yl)-3-(2-hydroxymethylphenyl)urea] | 
1.6 µM | O=C(Nc1ccnc(F)c1)Nc1ccccc1CCO [Compound 9, 1-(2-fluoropyridin-4-yl)-3-[2-(2-hydroxyethyl)phenyl]urea] | 
0.72 µM | O=C(Nc1cc(F)nc(F)c1)Nc1ccccc1CCO [Compound 10, 1-(2,6-difluoropyridin-4-yl)-3-[2-(2-hydroxyethyl)phenyl]urea] | 
0.43 µM | O=C(Nc1cc(Cl)nc(Cl)c1)Nc1ccccc1CCO [Compound 13, 1-(2,6-Dichloropyridin-4-yl)-3-[2-(2-hydroxyethyl)phenyl]urea] | 
0.056 µM | O=C(Nc1cc(Cl)nc(Cl)c1)Nc1cc(F)ccc1CCO [Compound 14, 1-[5-fluoro-2-(2-hydroxyethyl)phenyl]-3-(2,6-dichloropyridin-4-yl)urea] | 
0.15 µM | COc1cc(NC(=O)Nc2cc(F)ccc2CCO)ccn1 [Compound 15, 1-[5-fluoro-2-(2-hydroxyethyl)phenyl]-3-(2-methoxypyridin-4-yl)urea] | 
0.65 µM | O=C(Nc1cc(F)cc(F)c1)Nc1ccccc1CO [Compound 17, 1-(3,5-difluorophenyl)-3-(2-hydroxymethylphenyl)urea] | 
0.4 µM | O=C(Nc1cc(Cl)cc(Cl)c1)Nc1ccccc1CO [Compound 18, 1-(3,5-Dichlorophenyl)-3-(2-hydroxymethylphenyl)urea] | 
0.33 µM | O=C(Nc1cc(Br)cc(Br)c1)Nc1ccccc1CO [Compound 19, 1-(3,5-dibromophenyl)-3-(2-hydroxymethylphenyl)urea] | 
0.27 µM | O=C(Nc1cc(Cl)cc(Cl)c1)Nc1cccc(Cl)c1CO [Compound 20, 1-(3-Chloro-2-hydroxymethylphenyl)-3-(3,5-dichlorophenyl)urea] | 
0.02 µM | O=C(Nc1cc(Cl)cc(Cl)c1)Nc1cc(Cl)cc(Cl)c1CO [Compound 21, 1-(3,5-Dichloro-2-hydroxymethylphenyl)-3-(3,5-dichlorophenyl)urea] | 
0.2 µM | COc1cc(NCCO)cc(NC(=O)Nc2ccccc2CO)c1 [Compound 23, 1-[3-(2-hydroxyethylamino)-5-methoxyphenyl]-3-(2-hydroxymethylphenyl)urea] | 
0.18 µM | COc1cc(NCCN)cc(NC(=O)Nc2ccccc2CO)c1 [Compound 24, 1-[3-(2-aminoethylamino)-5-methoxyphenyl]-3-(2-hydroxymethylphenyl)urea] | 
1.5 µM | CSc1cccc(NC(=O)Nc2ccccc2CO)c1 [Compound 26, 1-(2-hydroxymethylphenyl)-3-(3-methylsulphanylphenyl)urea] | 
1.3 µM | O=C(Nc1cccc(OC(F)(F)F)c1)Nc1ccccc1CO [Compound 28, 1-(2-Hydroxymethylphenyl)-3-(3-trifluoromethoxyphenyl)urea] | 

IC50 [1] | SMILES | IC50
0.36 µM | O=C(Nc1cccc(OC(F)(F)F)c1)Nc1cccc(F)c1CO [Compound 29, 1-(3-fluoro-2-hydroxymethylphenyl)-3-(3-trifluoromethoxyphenyl)urea] | 
0.3 µM | O=C(Nc1cccc(OC(F)(F)F)c1)Nc1cccc(Cl)c1CO [Compound 30, 1-(3-Chloro-2-hydroxymethylphenyl)-3-(3-trifluoromethoxyphenyl)urea] | 
0.37 µM | O=C(Nc1cccc(OC(F)(F)F)c1)Nc1cccc(Br)c1CO [Compound 31, 1-(3-bromo-2-hydroxymethylphenyl)-3-(3-trifluoro-methoxyphenyl)urea] | 
0.11 µM | O=C(Nc1cccc(OC(F)(F)F)c1)Nc1cc(F)ccc1CO [Compound 32, 1-(5-fluoro-2-hydroxymethylphenyl)-3-(3-trifluoromethoxyphenyl)urea] | 
0.06 µM | O=C(Nc1cccc(OC(F)(F)F)c1)Nc1cc(Cl)ccc1CO [Compound 33, 1-(5-Chloro-2-hydroxymethylphenyl)-3-(3-trifluoromethoxyphenyl)urea] | 
0.085 µM | O=C(Nc1cccc(OC(F)(F)F)c1)Nc1cc(F)cc(F)c1CO [Compound 35, 1-(3,5-Difluoro-2-hydroxymethylphenyl)-3-(3-trifluoromethoxyphenyl)urea] | 
0.032 µM | O=C(Nc1cccc(OC(F)(F)F)c1)Nc1cc(Cl)cc(Cl)c1CO [Compound 36, 1-(3,5-dichloro-2-hydroxymethylphenyl)-3-(3-trifluoromethoxyphenyl)urea] | 
0.051 µM | O=C(Nc1cccc(OC(F)(F)F)c1)Nc1cc(Br)cc(Br)c1CO [Compound 37, 1-(3,5-dibromo-2-hydroxymethylphenyl)-3-(3-trifluoromethoxyphenyl)urea] | 
0.1 µM | O=C(Nc1cc(NCCO)cc(OC(F)(F)F)c1)Nc1ccccc1CO [Compound 38, 1-[3-(2-hydroxyethylamino)-5-trifluoromethoxyphenyl]-3-(2-hydroxymethylphenyl)urea] | 
0.095 µM | NCCNc1cc(NC(=O)Nc2ccccc2CO)cc(OC(F)(F)F)c1 [Compound 39, 1-[3-(2-aminoethylamino)-5-trifluoromethoxyphenyl]-3-(2-hydroxymethylphenyl)urea] | 
0.14 µM | O=C(Nc1cccc(SC(F)(F)F)c1)Nc1ccccc1CO [Compound 41, 1-(2-hydroxymethylphenyl)-3-(3-trifluoromethylsulphanylphenyl)urea] | 
0.02 µM | O=C(Nc1cccc(SC(F)(F)F)c1)Nc1cc(Cl)ccc1CO [Compound 43, 1-(5-chloro-2-hydroxymethylphenyl)-3-(3-trifluoromethylsulphanylphenyl)urea] | 
0.36 µM | O=C(Nc1cc(F)cc(F)c1)Nc1ccccc1CCO [Compound 44, 1-(3,5-difluorophenyl)-3-[2-(2-hydroxyethyl)phenyl]urea] | 
0.18 µM | O=C(Nc1cc(Cl)cc(Cl)c1)Nc1ccccc1CCO [Compound 45, 1-(3,5-Dichlorophenyl)-3-[2-(2-hydroxyethyl)phenyl]urea] | 
0.14 µM | O=C(Nc1cc(Br)cc(Br)c1)Nc1ccccc1CCO [Compound 46, 1-(3,5-dibromophenyl)-3-[2-(2-hydroxyethyl)phenyl]urea] | 
 | O=C(Nc1cc(F)cc(Br)c1)Nc1ccccc1CCO [Compound 47, 1-(3-bromo-5-fluorophenyl)-3-[2-(2-hydroxyethyl)phenyl]urea] | 0.17 µM
0.21 µM | O=C(Nc1cc(F)cc(Cl)c1)Nc1ccccc1CCO [Compound 48, 1-(3-chloro-5-fluorophenyl)-3-[2-(2-hydroxyethyl)phenyl]urea] | 

SMILES | IC50 [1] | IC50
O=C(Nc1ccnc(Cl)c1)Nc1ccccc1CO [Compound 4, 1-(2-chloropyridin-4-yl)-3-(2-hydroxymethylphenyl)urea] | 1.6 µM | 
O=C(Nc1cc(Cl)nc(Cl)c1)Nc1ccccc1CO [Compound 5, 1-(2,6-dichloropyridin-4-yl)-3-(2-hydroxymethylphenyl)urea] | 0.7 µM | 
O=C(Nc1ccnc(Cl)c1)Nc1ccccc1CCO [Compound 12, 1-(2-Chloropyridin-4-yl)-3-[2-(2-hydroxyethyl)phenyl]urea] | 1.3 µM | 
